Measured values: patent US12612410B2 (CHILDREN'S HOSPITAL MEDICAL CENTER, priority 2020, dated 2026)

Assays:
IRAK1 = biological target: T1, IRAK1 (Homo sapiens, UniProt P51617); experiment: RBC HotSpot Kinase Assay, IRAK1; format: biochemical; conditions: isolated kinase, 33P-ATP
T1 construct: purchased Reaction Biology (RBC), HotSpot kinase assay
Summary of the method: (§1)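 Catalytic activity, not binding, is measured: substrate transphosphorylation from 33P-ATP is captured on P81 filters after 2 hours at room temperature. Enzyme is the easiest-expressed form, sometimes truncated. Compound and kinase are preincubated 20 min before ATP addition.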

FLT3 = biological target: T2, FLT3 (Homo sapiens, UniProt P36888); experiment: RBC HotSpot Kinase Assay, FLT3; format: biochemical; design: purchased Reaction Biology (RBC), HotSpot kinase assay; conditions: isolated kinase, 33P-ATP
T2 sequence (P36888 27-993): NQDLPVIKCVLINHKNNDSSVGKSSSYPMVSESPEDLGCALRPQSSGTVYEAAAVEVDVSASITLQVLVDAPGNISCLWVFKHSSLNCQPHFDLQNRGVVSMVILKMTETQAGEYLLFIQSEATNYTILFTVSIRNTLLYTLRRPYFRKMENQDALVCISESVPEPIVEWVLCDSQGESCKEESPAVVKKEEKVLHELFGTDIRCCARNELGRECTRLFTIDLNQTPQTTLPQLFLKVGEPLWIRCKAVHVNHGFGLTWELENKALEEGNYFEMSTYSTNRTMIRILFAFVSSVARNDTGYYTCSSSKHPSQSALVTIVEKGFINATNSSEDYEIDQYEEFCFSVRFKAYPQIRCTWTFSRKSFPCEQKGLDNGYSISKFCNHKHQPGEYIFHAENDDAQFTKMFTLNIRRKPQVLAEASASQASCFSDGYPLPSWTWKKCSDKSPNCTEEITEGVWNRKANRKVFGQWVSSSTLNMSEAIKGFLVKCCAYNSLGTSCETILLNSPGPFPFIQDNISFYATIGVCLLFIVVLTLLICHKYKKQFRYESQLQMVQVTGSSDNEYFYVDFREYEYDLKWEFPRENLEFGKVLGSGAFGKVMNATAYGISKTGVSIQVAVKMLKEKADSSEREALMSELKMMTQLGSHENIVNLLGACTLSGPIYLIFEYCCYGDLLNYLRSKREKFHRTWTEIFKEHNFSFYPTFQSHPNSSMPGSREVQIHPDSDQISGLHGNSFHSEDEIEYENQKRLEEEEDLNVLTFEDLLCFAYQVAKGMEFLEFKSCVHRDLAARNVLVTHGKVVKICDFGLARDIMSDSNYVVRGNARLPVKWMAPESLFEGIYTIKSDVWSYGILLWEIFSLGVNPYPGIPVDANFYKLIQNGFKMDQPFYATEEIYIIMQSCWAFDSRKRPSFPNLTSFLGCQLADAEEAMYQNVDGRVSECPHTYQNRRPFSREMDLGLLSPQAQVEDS
Summary of the method: as §1

T1 sequence (P51617 whole entry): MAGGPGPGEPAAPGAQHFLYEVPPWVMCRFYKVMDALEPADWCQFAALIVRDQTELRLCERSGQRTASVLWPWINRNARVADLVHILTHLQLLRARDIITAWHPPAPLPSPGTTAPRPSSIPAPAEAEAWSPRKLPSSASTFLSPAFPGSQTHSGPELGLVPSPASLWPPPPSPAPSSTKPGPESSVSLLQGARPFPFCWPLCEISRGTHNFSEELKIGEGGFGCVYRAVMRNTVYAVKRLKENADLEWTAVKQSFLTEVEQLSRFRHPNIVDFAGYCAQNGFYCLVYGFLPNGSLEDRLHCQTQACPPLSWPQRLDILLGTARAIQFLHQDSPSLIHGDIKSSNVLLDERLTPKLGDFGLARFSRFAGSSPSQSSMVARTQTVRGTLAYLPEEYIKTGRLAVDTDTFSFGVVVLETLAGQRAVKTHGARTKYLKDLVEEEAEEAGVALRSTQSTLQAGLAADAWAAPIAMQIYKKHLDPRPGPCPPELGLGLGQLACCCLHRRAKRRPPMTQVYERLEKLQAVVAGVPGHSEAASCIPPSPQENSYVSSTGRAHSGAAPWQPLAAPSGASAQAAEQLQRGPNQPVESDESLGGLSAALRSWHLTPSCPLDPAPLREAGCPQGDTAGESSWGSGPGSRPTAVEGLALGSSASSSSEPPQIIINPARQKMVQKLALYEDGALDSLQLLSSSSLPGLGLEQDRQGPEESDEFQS

Row | Structure (SMILES) | IC50 (IRAK1) | IC50 (FLT3)
1 | CC(C)(O)c1cn2c(-c3nc(N[C@H]4CNC[C@@H]4F)c(F)cc3F)cnc2cn1 [Compound 33, 2-(3-(3,5-difluoro-6-(((3S,4S)-4-fluoropyrrolidin-3-yl)amino)pyridin-2-yl)imidazo[1,2-a]pyrazin-6-yl)propan-2-ol] | 61 nM | 0.6 nM
2 | O=S1(=O)CCCN1c1cn2c(-c3cccc(N[C@H]4CNCC[C@@H]4F)n3)cnc2cn1 [Compound 97, 2-(3-(6-(((3S,4S)-4-fluoropiperidin-3-yl)amino)pyridin-2-yl)imidazo[1,2-a]pyrazin-6-yl)isothiazolidine 1,1-dioxide] | 53 nM | 0.6 nM
3 | CC1(c2cn3c(-c4cccc(N[C@H]5CNC[C@@H]5F)n4)cnc3cn2)CC1 [Compound 1, N-((3S,4S)-4-fluoropyrrolidin-3-yl)-6-(6-(1-methylcyclopropyl)imidazo[1,2-a]pyrazin-3-yl)pyridin-2-amine] | 63 nM | 0.6 nM
4 | O=C1CCCN1c1cn2c(-c3cccc(N[C@H]4CNC[C@@H]4F)n3)cnc2cn1 [Compound 121, 1-(3-(6-(((3S,4S)-4-fluoropyrrolidin-3-yl)amino)pyridin-2-yl)imidazo[1,2-a]pyrazin-6-yl)pyrrolidin-2-one] | 207 nM | < 0.5 nM
5 | FC(F)c1cn2c(-c3cccc(N[C@H]4CNC[C@@H]4F)n3)cnc2cn1 [Compound 16, 6-(6-(difluoromethyl)imidazo[1,2-a]pyrazin-3-yl)-N-((3S,4S)-4-fluoropyrrolidin-3-yl)pyridin-2-amine] | 60 nM | < 0.5 nM
6 | F[C@H]1CNC[C@@H]1Nc1cccc(-c2cnc3cnc(C4CC4)cn23)n1 [Compound 50, 6-(6-cyclopropylimidazo[1,2-a]pyrazin-3-yl)-N-((3S,4S)-4-fluoropyrrolidin-3-yl)pyridin-2-amine] | 113 nM | 0.6 nM
7 | O=C1CCCN1c1cn2c(-c3nc(N[C@@H]4CCCNC4)c(F)cc3F)cnc2cn1 [Compound 108, (R)-1-(3-(3,5-difluoro-6-(piperidin-3-ylamino)pyridin-2-yl)imidazo[1,2-a]pyrazin-6-yl)pyrrolidin-2-one] | 109 nM | 0.9 nM
8 | CC(C)(C)c1cn2c(-c3nc(N[C@H]4CNC[C@@H]4F)c(F)cc3F)cnc2cn1 [Compound 125] | 51 nM | < 0.5 nM
9 | O=C1NCCN1c1cn2c(-c3cccc(N[C@H]4CNCC[C@@H]4F)n3)cnc2cn1 [Compound 118, 1-(3-(6-(((3S,4S)-4-fluoropiperidin-3-yl)amino)pyridin-2-yl)imidazo[1,2-a]pyrazin-6-yl)imidazolidin-2-one] | 22 nM | 1 nM
10 | CC(C)(C)c1cn2c(-c3nc(N[C@H]4CNCC[C@@H]4F)c(F)cc3F)cnc2cn1 [Compound 127, 6-(6-(tert-butyl)imidazo[1,2-a]pyrazin-3-yl)-3,5-difluoro-N-((3S,4S)-4-fluoropiperidin-3-yl)pyridin-2-amine] | 60 nM | < 0.5 nM
11 | CC1(c2cn3c(-c4cccc(N[C@H]5CNCC56CC6)n4)cnc3cn2)CC1 [Compound 5, (R)-N-(6-(6-(1-methylcyclopropyl)imidazo[1,2-a]pyrazin-3-yl)pyridin-2-yl)-5-azaspiro[2.4]heptan-7-amine] | 114 nM | < 0.5 nM
12 | FC(F)COc1cn2c(-c3cccc(N[C@H]4CNC[C@@H]4F)n3)cnc2cn1 [Compound 58, 6-(6-(2,2-difluoroethoxy)imidazo[1,2-a]pyrazin-3-yl)-N-((3S,4S)-4-fluoropyrrolidin-3-yl)pyridin-2-amine] | 117 nM | 0.7 nM

Other lines, results leading:

Row | IC50 (IRAK1) | IC50 (FLT3) | Structure (SMILES)
13 | 64 nM | 0.6 nM | CC(O)(c1cn2c(-c3cccc(N[C@H]4CNCC[C@@H]4F)n3)cnc2cn1)C(F)(F)F (single isomer, unassigned) [Compound 80]
14 | 66 nM | < 0.5 nM | CC(O)(c1cn2c(-c3cccc(N[C@H]4CNC[C@@H]4F)n3)cnc2cn1)C(F)(F)F (single isomer, unassigned) [Compound 78]
15 | 155 nM | < 0.5 nM | FC(F)(F)C1(c2cn3c(-c4cccc(N[C@@H]5CCNC5)n4)cnc3cn2)CC1 [Compound 10, (R)-N-(pyrrolidin-3-yl)-6-(6-(1-(trifluoromethyl)cyclopropyl)imidazo[1,2-a]pyrazin-3-yl)pyridin-2-amine]
16 | 92 nM | < 0.5 nM | FC(F)(F)COc1cn2c(-c3cccc(N[C@@H]4CCNC4)n3)cnc2cn1 [Compound 38, (R)-N-(pyrrolidin-3-yl)-6-(6-(2,2,2-trifluoroethoxy)imidazo[1,2-a]pyrazin-3-yl)pyridin-2-amine]
17 | 80 nM | < 0.5 nM | CC(C)(C)c1cn2c(-c3nc(N[C@@H]4CCCNC4)c(F)cc3F)cnc2cn1 [Compound 126, (R)-6-(6-(tert-butyl)imidazo[1,2-a]pyrazin-3-yl)-3,5-difluoro-N-(piperidin-3-yl)pyridin-2-amine]
18 | 23 nM | < 0.5 nM | CC(C)(O)c1cn2c(-c3cccc(N[C@H]4CNCC[C@@H]4F)n3)cnc2cn1 [Compound 31, 2-(3-(6-(((3S,4S)-4-fluoropiperidin-3-yl)amino)pyridin-2-yl)imidazo[1,2-a]pyrazin-6-yl)propan-2-ol]
19 | 237 nM | 0.9 nM | CC(O)(c1cn2c(-c3cccc(N[C@H]4CNC[C@@H]4F)n3)cnc2cn1)C(F)(F)F (single isomer, unassigned) [Compound 77]
20 | 110 nM | < 0.5 nM | O=C1CCCN1c1cn2c(-c3cccc(N[C@H]4CNCC[C@@H]4F)n3)cnc2cn1 [Compound 119, 1-(3-(6-(((3S,4S)-4-fluoropiperidin-3-yl)amino)pyridin-2-yl)imidazo[1,2-a]pyrazin-6-yl)pyrrolidin-2-one]
21 | 895 nM | < 0.5 nM | Cn1cc(-c2cn3c(-c4cccc(N[C@@H]5CCCNC5)n4)cnc3cn2)cn1 [Compound 43, (R)-6-(6-(1-methyl-1H-pyrazol-4-yl)imidazo[1,2-a]pyrazin-3-yl)-N-(piperidin-3-yl)pyridin-2-amine]
22 | 97 nM | < 0.5 nM | CC(C)(C)c1cn2c(-c3cccc(N[C@@H]4CCCNC4)n3)cnc2cn1 [Compound 129, (R)-6-(6-(tert-butyl)imidazo[1,2-a]pyrazin-3-yl)-N-(piperidin-3-yl)pyridin-2-amine]
23 | 144 nM | < 0.5 nM | FC(F)c1cn2c(-c3cccc(N[C@H]4CNCC[C@@H]4F)n3)cnc2cn1 [Compound 25, 6-(6-(difluoromethyl)imidazo[1,2-a]pyrazin-3-yl)-N-((3S,4S)-4-fluoropiperidin-3-yl)pyridin-2-amine]
24 | 47 nM | 4 nM | CC(C)(O)c1cn2c(-c3nc(N[C@@H]4CCCNC4)c(F)cc3F)cnc2cn1 [Compound 34, (R)-2-(3-(3,5-difluoro-6-(piperidin-3-ylamino)pyridin-2-yl)imidazo[1,2-a]pyrazin-6-yl)propan-2-ol]
25 | 16 nM | < 0.5 nM | CC(O)(c1cn2c(-c3cccc(N[C@H]4CNCC[C@@H]4F)n3)cnc2cn1)C(F)(F)F (single isomer, unassigned) [Compound 82]
26 | 88 nM | 0.7 nM | CC1(c2cn3c(-c4cccc(N[C@@H]5CCNC5)n4)cnc3cn2)CC1 [Compound 3, (R)-6-(6-(1-methylcyclopropyl)imidazo[1,2-a]pyrazin-3-yl)-N-(pyrrolidin-3-yl)pyridin-2-amine]
